Test results: article PMC12024397, “Structure–Activity Study of the Antimicrobial Lipopeptide Humimycin A and Screening Against Multidrug-Resistant Staphylococcus aureus” (Antibiotics, 2025)
Non-standard residues stand in square brackets, D forms with d. Residues, ends and D or L forms follow the SMILES beside them. *: point of attachment. Tetradecanoyl(3R-OH) = CCCCCCCCCCC[C@@H](O)CC(=O)*; Tetradecanoyl(3S-OH) = CCCCCCCCCCC[C@H](O)CC(=O)*

Key:
S. aureus ATCC 29213 = assay: growth kinetics; type: cell-based, Staphylococcus aureus; conditions: TSB, 37 °C, 6 h, OD 595 nm every 2 h, peptide at MIC, three independent experiments
Experimental: Figure 2 Growth kinetics of S. aureus ATCC 29213 in the presence of humimycin analogs 12R, 12S, 13R, and 13S. Cultures of S. aureus were treated with various concentrations (2 × MIC, MIC, ½ × MIC, and ¼ × MIC) of the peptides and their growth was monitored by measuring the optical density at 595 nm. The positive control consisted of an untreated S. aureus culture, while the negative control contained only the growth medium without bacterial inoculation. The data represents the mean ± standard deviation of three independent experiments.
The growth kinetics of S. aureus ATCC 29213 in presence of humimycin analogs 12R, 12S, 13R, and 13S was assessed on S. aureus cultures in TSB at 37 °C in the stationary phase. The overnight culture was then diluted 1:100 in fresh TSB to achieve an initial optical density at 600 nm (OD600) of approximately 0.05. Humimycin analogs were prepared at concentrations corresponding to 0.5×, 1×, and 2× the MIC. S. aureus cultures without any analog served as the positive control and culture media was the negative control. The treated and control cultures were incubated at 37 °C for a total duration of 6 h. Absorbance readings at 595 nm were recorded every 2 h using a microplate reader to monitor the bacterial growth. The OD595 values were then plotted against time to generate bacterial growth curves. To ensure reproducibility, all experiments were performed in triplicate, with results expressed in a graph as mean ± standard deviation.

[1] = critical micelle concentration, Nile Red fluorescence; type: physicochemical; conditions: overnight equilibration, intersection of linear fits of fluorescence vs log concentration
Experimental: Figure 4 CMC measurements of synthetic humimycin analogs 12R, 12S, 13R, and 13S. The CMC is the concentration at the intersection of the linear fits to the fluorescence intensity against log 10 concentration of peptide. Black circle: monomer; red circle: micelle.
The CMC of synthesized analogs 12R, 12S, 13R, and 13S was determined using the Nile Red fluorescence method, which takes advantage of the dye’s enhanced fluorescence emission in hydrophobic environments. A 500 μM stock solution of Nile Red was prepared in DMSO. Aliquots of 10 μL of this stock solution were added to each well and kept in the dark. Peptide solutions (200 μL) at various concentrations were then added to the well and allowed to equilibrate with the Nile Red overnight. Fluorescence emission spectra were recorded from 485 nm to 636 nm on a SpectraMax i3 spectrofluorometer with an excitation and emission bandwidth 9 nm and 15 nm, respectively. The ratio of the emission intensity was calculated for each peptide concentration and plotted against the logarithm of the peptide concentration. The CMC was determined from the intersection of the linear fits to the data points below and above the transition region in the plot. Tween-20 was used as positive control.

human red blood cells = type: cell-based; conditions: red cells of human, 1 h
Experimental: Figure 3 The hemolytic activity of synthetic humimycin analogs 12R, 12S, 13R, and 13S on human erythrocytes. Positive control: 0.2% Triton X-100 in PBS, negative control: PBS. The data represent the mean ± standard deviation of three independent experiments.
Hemolytic potential of the humimycin analogs 12R, 12S, 13R, and 13S, was evaluated by exposing fresh, uninfected red blood cells (RBCs) to 16 two-fold serial dilutions of each analog, ranging from 512 μg/mL to 0.015 μg/mL, in RPMI-1640 medium supplemented with HEPES and containing a maximum of 0.5% dimethyl sulfoxide (DMSO). The assay was performed in round-bottom 96-well plates at a final hematocrit of 1%. Mock control wells contained RBCs in RPMI-1640 with 1% DMSO, while 100% lysis control wells contained RBCs in RPMI-1640 with 1% DMSO and 1% Triton X-100. The plates were incubated for 1 h at 37 °C under a gassed atmosphere. Following incubation, the plates were centrifuged at 800× g for 5 min, and 100 μL of supernatant from each well was transferred to a clean flat-bottom 96-well plate. The absorbance of released hemoglobin in the supernatant was measured at 405 nm using a VICTOR plate reader (PerkinElmer). The percentage of hemolysis was calculated by comparing the absorbance of the supernatant from compound-treated RBCs to that of the mock control and 100% lysis control wells. All assays were performed in triplicates.

Row | Compound | effect on bacterial growth at MIC (S. aureus ATCC 29213) | CMC [1] | HC50 (human red blood cells)
1 | CCCCCCCCCCC[C@@H](O)CC(=O)N[C@@H](Cc1c[nH]c2ccccc12)C(=O)N[C@@H](CO)C(=O)N[C@H](Cc1c[nH]c2ccccc12)C(=O)N[C@@H](Cc1ccccc1)C(=O)N[C@@H](C(=O)N[C@H](C(=O)N[C@H](C(=O)O)C(C)C)C(C)C)[C@H](C)O [12R] ({Tetradecanoyl(3R-OH)}-WS[dW]F[dT]VV-OH) | effectively inhibited the growth | approximately 60 μg/mL | 44.8 µg/mL
2 | CCCCCCCCCCC[C@H](O)CC(=O)N[C@@H](Cc1c[nH]c2ccccc12)C(=O)N[C@@H](CO)C(=O)N[C@H](Cc1c[nH]c2ccccc12)C(=O)N[C@@H](Cc1ccccc1)C(=O)N[C@@H](C(=O)N[C@H](C(=O)N[C@H](C(=O)O)C(C)C)C(C)C)[C@H](C)O [12S] ({Tetradecanoyl(3S-OH)}-WS[dW]F[dT]VV-OH) | effectively inhibited the growth | ~70 µg/mL | 60.8 µg/mL
3 | CCCCCCCCCCC[C@@H](O)CC(=O)N[C@@H](Cc1c[nH]c2ccccc12)C(=O)N[C@@H](CO)C(=O)N[C@H](Cc1c[nH]c2ccccc12)C(=O)N[C@@H](Cc1ccccc1)C(=O)N[C@@H](C(=O)N[C@@H](C)C(=O)N[C@H](C(=O)O)C(C)C)[C@H](C)O [13R] ({Tetradecanoyl(3R-OH)}-WS[dW]F[dT]AV-OH) | effectively inhibited the growth | ~12 µg/mL | 76.8 µg/mL
4 | CCCCCCCCCCC[C@H](O)CC(=O)N[C@@H](Cc1c[nH]c2ccccc12)C(=O)N[C@@H](CO)C(=O)N[C@H](Cc1c[nH]c2ccccc12)C(=O)N[C@@H](Cc1ccccc1)C(=O)N[C@@H](C(=O)N[C@@H](C)C(=O)N[C@H](C(=O)O)C(C)C)[C@H](C)O [13S] ({Tetradecanoyl(3S-OH)}-WS[dW]F[dT]AV-OH) | effectively inhibited the growth | ~40 µg/mL | 48 µg/mL
